Patent publication EP4806435A1, “DIHYDROCHROMENE-DERIVATIVE-CONTAINING THERAPEUTIC AGENT FOR CANCER” (Sumitomo Pharma Co., Ltd., priority 2023, dated 2025)

What was measured:
B16 cells = test: Efficacy in anti-PD-1 antibody-resistant in vivo model; parameters: species or system C57BL/6J mice; settings: 10 mg/kg, once daily; B16 intradermal; versus nivolumab 5 mg/kg once weekly
Experimental: B16 cells (5 x 10^5 cells; obtained from the JCRB Cell Bank) were intradermally implanted into C57BL/6J mice to establish tumors. On day 12 after implantation, administration of Compound 1 (10 mg/kg, once daily) or an anti-PD-1 antibody (nivolumab, 5 mg/kg, once weekly) was initiated, and the efficacy of each monotherapy group was compared with that of the control group.

MC38 cells = test: In vivo efficacy, combination with ipilimumab, MC38 tumors; parameters: species or system C57BL/6J mice; settings: Compound 1 3 mg/kg or 30 mg/kg once daily + ipilimumab 5 mg/kg once weekly; MC38, subcutaneous
Experimental: MC38 cells (3 x 10^5) were subcutaneously implanted into C57BL/6J mice (n = 6) to establish tumors. On day 12 after implantation, administration was initiated with Compound 1 at 3 mg/kg or 30 mg/kg (once daily) and ipilimumab (an anti-CTLA-4 antibody) at 5 mg/kg (once weekly), and the efficacy of each monotherapy and the combination therapy was compared.
Tumor volume was calculated using the following formula based on the short and long diameters of the tumor measured with digital calipers (Mitutoyo). [formula]
The antitumor effect was evaluated by comparing the vehicle-treated control group with the test substance-treated group, and calculating T/C using the following formula. [formula]

EBP = biological target: T1, EBP (Homo sapiens, UniProt Q15125); test: Phase 1 clinical trial: pharmacodynamics, Lathosterol/Zymostenol (L/Z) ratio; type: in vivo; settings: for decrease of mean L/Z ratio: Cycle 1 Day 2 (C1D2), as of April 2024
T1 construct: endogenous in cells; host or cells: Patients with recurrent malignant glioma (WHO grade III or IV), in vivo; sterol ratio assessed in serum
T1 sequence (Q15125 whole entry): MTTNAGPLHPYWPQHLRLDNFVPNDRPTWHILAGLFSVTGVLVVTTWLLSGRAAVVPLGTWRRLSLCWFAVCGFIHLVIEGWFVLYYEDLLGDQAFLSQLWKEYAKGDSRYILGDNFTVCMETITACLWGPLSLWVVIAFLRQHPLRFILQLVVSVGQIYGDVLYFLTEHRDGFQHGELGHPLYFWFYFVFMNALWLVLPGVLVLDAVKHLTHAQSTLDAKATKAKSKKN
From the text: As of September 2023, pharmacodynamic assessments had clearly shown that Compound 1 inhibited the target, at least in serum. […] (Figure 5)

## CC1(C)Oc2cc(Cl)ccc2[C@@H]2OCC3(CCN(CCn4ccnc4)CC3)C[C@H]21 [Compound 1, (4'aR,10'bR)-8'-chloro-1-[2-(1H-imidazol-1-yl)ethyl]-5',5'-dimethyl-4'a,10'b-dihydro-2'H,4'H,5'H-spiro[piperidine-4,3'-pyrano[3,2-c][1]benzopyran] diphosphate]
B16 cells
  tumor growth inhibition as monotherapy: statistically significant inhibition of tumor growth compared with the nivolumab-treated group
MC38 cells
  antitumor effect in combination with ipilimumab: remarkably pronounced antitumor effect
EBP; 480 mg per day (240 mg BID)
  reduction in the L/Z ratio versus lower dose levels: did not show a greater reduction in the L/Z ratio than those at the 180-360 mg QD dose levels
EBP; 20 mg QD
  decrease of mean L/Z ratio: 70%
EBP; 180 mg and 240 mg QD
  decrease of mean L/Z ratio: 95-97%
EBP; 360 mg QD
  decrease of mean L/Z ratio: 97.5%
EBP; 40-120 mg QD
  decrease of mean L/Z ratio: 85-91%
EBP; Cycle 1 Day 8 (C1D8), 20-360 mg QD, maintained in subsequent cycles
  decrease of L/Z ratio: approximately 100%
EBP; from the 180 mg QD to 360 mg QD dose groups
  blood L/Z ratio across dose groups: remained at a similar level
EBP; serum, starting from 40 mg QD cohort, as of September 2023
  decrease of the ratio of lathosterol and zymostenol (L/Z ratio): over 80%
